Assay results reported in US11242361B2 (Proteostasis Therapeutics, Inc., priority 2013, dated 2022).

What follows are compounds tested against USP14 (Homo sapiens (Human), UniProt P54578) (assay: USP14 Inhibition Assay). Settings: average value from a minimum of two experimental determinations.
Assay type: biochemical
Protocol: Example 17: USP14 Inhibition Assay
“I” in the Table below designates an IC50 of >5 μM, “II” in the Table below designates and IC50 between 0.5 and 5 μM, and “III” designates an IC50<0.5 μM. The IC50 values in the Table below represent the average value from a minimum of two experimental determinations.

USP14, sequence (P54578 whole entry, looked up): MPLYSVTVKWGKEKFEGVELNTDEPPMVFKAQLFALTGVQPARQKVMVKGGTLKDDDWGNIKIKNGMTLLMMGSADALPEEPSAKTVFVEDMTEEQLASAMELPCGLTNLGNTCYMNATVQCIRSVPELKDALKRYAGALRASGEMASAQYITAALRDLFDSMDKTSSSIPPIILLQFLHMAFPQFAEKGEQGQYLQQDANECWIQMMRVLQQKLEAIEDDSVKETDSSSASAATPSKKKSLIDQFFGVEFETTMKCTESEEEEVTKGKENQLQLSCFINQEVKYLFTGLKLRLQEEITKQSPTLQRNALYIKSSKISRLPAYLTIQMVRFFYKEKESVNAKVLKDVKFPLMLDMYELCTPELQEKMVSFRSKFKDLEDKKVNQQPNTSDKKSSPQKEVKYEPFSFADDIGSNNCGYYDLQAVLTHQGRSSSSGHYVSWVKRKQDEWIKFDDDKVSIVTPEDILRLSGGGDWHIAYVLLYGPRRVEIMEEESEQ

| IC50 Category | SMILES |
| --- | --- |
| IIII | Cc1c(C(=O)CN2CCC[C@H]2C)c2ncc(Br)cc2n1-c1ccc(C#N)cc1 [Compound 306] |

Same assay, conditions: average value from a minimum of two experimental determinations, read-out: IC50 Category

| IC50 [nM] | SMILES |
| --- | --- |
| < 500 | Cc1c(C(=O)CN2CCCCC2)c2nc(-n3ccnn3)ccc2n1-c1ccc(C#N)cc1 [Compound 209, 4-(2-Methyl-3-(2-(piperidin-1-yl)acetyl)-5-(1H-1,2,3-triazol-1-yl)-1H-pyrrolo[3,2-b]pyridin-1-yl)benzonitrile] |
| < 500 | CCOC(=O)Cc1ccc2c(C(=O)CN3CCCCC3)c(C)n(-c3ccc(C#N)cc3)c2c1 [Compound 197] |
| < 500 | Cc1c(C(=O)CN2CCC(O)CC2)c2ccccc2n1-c1ccc(F)cc1 [Compound 389] |
| < 500 | Cc1c(C(=O)CN2CCCCC2)c2ncc(CC(=O)NC3CC3)cc2n1-c1ccc(C#N)cc1 [Compound 381, 2-(1-(4-Cyanophenyl)-2-methyl-3-(2-(piperidin-1-yl)acetyl)-1H-pyrrolo[3,2-b]pyridin-6-yl)-N-cyclopropylacetamide] |
| 500 to 5000 | Cc1c(C(=O)CN2CC=CCC2)c2ncc(Br)cc2n1-c1ccc(C#N)cc1 [Compound 314] |
| > 5000 | Cc1c(C(=O)CN2CC3(COC3)C2)c2ncc(Br)cc2n1-c1ccc(C#N)cc1 [Compound 343] |
| < 500 | Cc1c(C(=O)CN2CCCCC2)c2ncc(CCC(=O)NCCCN=[N+]=[N-])cc2n1-c1ccc(C#N)cc1 [Compound 299] |
| < 500 | Cc1c(C(=O)CN2CCCCC2)c2ccc(F)cc2n1-c1ccc(C#N)cc1 [Compound 176] |
| > 5000 | Cc1c(C(=O)CN2CCS(=O)(=O)CC2)c2ncc(Br)cc2n1-c1ccc(C#N)cc1 [Compound 327] |
| < 500 | CCCC(=O)CCc1cnc2c(C(=O)CN3CCCCC3)c(C)n(-c3ccc(Cl)cc3)c2c1 [Compound 387] |
| < 500 | Cc1c(C(=O)CN2CCCC[C@H]2C)c2ncc(Br)cc2n1-c1ccc(C#N)cc1 [Compound 309] |
| < 500 | CC(=O)Oc1ccc2c(C(=O)CN3CCCCC3)c(C)n(-c3ccc(Cl)cc3)c2c1 [Compound 172, 1-(4-Chlorophenyl)-2-methyl-3-(2-(piperidin-1-yl)acetyl)-1H-indol-6-yl Acetate] |
| < 500 | Cc1c(C(=O)CN2CCCCC2)c2cc(N)ccc2n1-c1ccc(C#N)cc1 [Compound 186, 4-(5-Amino-2-methyl-3-(2-(piperidin-1-yl)acetyl)-1H-indol-1-yl)benzonitrile] |
| < 500 | Cc1c(C(=O)CN2CCCC[C@@H]2C)c2ncc(Br)cc2n1-c1ccc(C#N)cc1 [Compound 308] |
| < 500 | CC(=O)Nc1ccc2c(c1)c(C(=O)CN1CCCCC1)c(C)n2-c1ccc(C#N)cc1 [Compound 191, N-(1-(4-Cyanophenyl)-2-methyl-3-(2-(piperidin-1-yl)acetyl)-1H-indol-5-yl)acetamide] |
| 500 to 5000 | Cc1c(C(=O)CN2CCCCC2)c2cc(Oc3ccccc3)ccc2n1-c1ccc(Cl)cc1 [Compound 145] |
| < 500 | Cc1c(C(=O)CN2CCCCC2)c2ccc(OCC(N)=O)cc2n1-c1ccc(Cl)cc1 [Compound 179, 2-((1-(4-Chlorophenyl)-2-methyl-3-(2-(piperidin-1-yl)acetyl)-1H-indol-6-yl)oxy)acetamide] |
| > 5000 | O=C(CN1CCCCC1)c1c(O)n(-c2ccc(Cl)cc2)c2ccccc12 [Compound 131, 1-(1-(4-Chlorophenyl)-2-hydroxy-1H-indol-3-yl)-2-(piperidin-1-yl)ethan-1-one] |
| < 500 | COCCOc1cnc2c(C(=O)CN3CCCCC3)c(C)n(-c3ccc(Cl)cc3)c2c1 [Compound 364] |
| > 5000 | Cc1c(C(=O)CN2CCNC(=O)C2)c2ncc(Br)cc2n1-c1ccc(C#N)cc1 [Compound 344] |
| > 5000 | Cc1c(C(=O)CN2CC3(CCC3)C2)c2ncc(Br)cc2n1-c1ccc(C#N)cc1 [Compound 359] |

| IC50 [nM] | SMILES |
| --- | --- |
| < 500 | Cc1ccc2c(C(=O)CN3CCCCC3)c(C)n(-c3ccc(C#N)cc3)c2c1 [Compound 169, 4-(2,6-Dimethyl-3-(2-(piperidin-1-yl)acetyl)-1H-indol-1-yl)benzonitrile] |
| < 500 | Cc1c(C(=O)CN2CCCCC2)c2cc(NC(=O)C(C)(C)C)ccc2n1-c1ccc(C#N)cc1 [Compound 187, N-(1-(4-Cyanophenyl)-2-methyl-3-(2-(piperidin-1-yl)acetyl)-1H-indol-5-yl)pivalamide] |
| < 500 | COC(=O)c1ccc2c(C(=O)CN3CCCCC3)c(C)n(-c3ccc(Cl)cc3)c2c1 [Compound 171] |
| < 500 | Cc1c(C(=O)CN2CCC(O)CC2)c2ncc(CCC(=O)NCCCC#N)cc2n1-c1ccc(C#N)cc1 [Compound 362] |
| < 500 | Cc1c(C(=O)CN2CCCCC2)c2ncc(Br)cc2n1-c1ccc(C#N)cc1 [Compound 297, 4-(6-Bromo-2-methyl-3-(2-(piperidin-1-yl)acetyl)-1H-pyrrolo[3,2-b]pyridin-1-yl)benzonitrile] |
| 500 to 5000 | Cc1c(C(=O)CN2CCC(O)CC2)c2ccccc2n1-c1ccc(C#N)nc1 [Compound 393] |
| > 5000 | Cc1c(C(=O)CN2CCC(CC(=O)O)CC2)c2ncc(Br)cc2n1-c1ccc(Cl)cc1 [Compound 371] |
| < 500 | Cc1c(C(=O)CN2CCCCC2)c2cccc(F)c2n1-c1ccc(C#N)cc1 [Compound 170] |
| < 500 | Cc1c(C(=O)CN2CC[C@H](O)[C@H](O)C2)c2ncc(Br)cc2n1-c1ccc(C#N)cc1 [Compound 332] |
| > 5000 | Cc1c(C(=O)CN2CCC(CNCC(=O)O)CC2)c2ncc(Br)cc2n1-c1ccc(Cl)cc1 [Compound 386] |
| < 500 | COc1cnc2c(C(=O)CN3CCC(O)CC3)c(C)n(-c3ccc(C#N)cc3)c2c1 [Compound 339] |
| 500 to 5000 | Cc1c(C(=O)CN2CCC(O)CC2)c2ccccc2n1-c1ccc(Cl)cn1 [Compound 398] |
| < 500 | CCN(CC)C(=O)CCc1cc2c(nc1C)c(C(=O)CN1CCCCC1)c(C)n2-c1ccc(C#N)cc1 [Compound 204, 3-(1-(4-Cyanophenyl)-2,5-dimethyl-3-(2-(piperidin-1-yl)acetyl)-1H-pyrrolo[3,2-b]pyridin-6-yl)-N,N-diethylpropanamide] |
| 500 to 5000 | Cc1c(C(=O)CN2CCCCC2)c2ncccc2n1-c1ccc(Cl)nc1 [Compound 149] |
| < 500 | Cc1c(C(=O)CN2CCSCC2)c2ncc(Br)cc2n1-c1ccc(C#N)cc1 [Compound 331] |
| > 5000 | CC(=O)OCc1ccc2c(C(=O)CN3CCCCC3)cn(-c3ccc(Cl)cc3)c2c1 [Compound 118, (1-(4-Chlorophenyl)-3-(2-(piperidin-1-yl)acetyl)-1H-indol-6-yl)methyl Acetate] |
| > 5000 | O=C(CN1CCC(O)CC1)c1cn(-c2ccc(Cl)cc2)c2ccccc12 [Compound 30] |
| < 500 | COc1cnc2c(C(=O)CN3CCC(CN)CC3)c(C)n(-c3ccc(C#N)cc3)c2c1 [Compound 369] |
| < 500 | Cc1c(C(=O)CN2CCCCC2)c2ncc(CCC(=O)NCCN=[N+]=[N-])cc2n1-c1ccc(C#N)cc1 [Compound 304] |
| > 5000 | Cc1c(C(=O)CN2CCOCC2)c2ncc(Br)cc2n1-c1ccc(C#N)cc1 [Compound 329] |
| 500 to 5000 | Cc1c(C(=O)CN2CCC(O)CC2)c2ccccc2n1-c1ccc(Cl)nc1 [Compound 392] |

| SMILES | IC50 [nM] |
| --- | --- |
| COc1ccc2c(C(=O)CN3CCCCC3)c(C)n(-c3ccc(Cl)cc3)c2c1 [Compound 178] | < 500 |
| COc1ccc2c(c1)c(C(=O)CN1CCCCC1)c(C)n2-c1ccc(Cl)cc1 [Compound 155] | < 500 |
